pIC50: −log10 of the molar value.
Key:
Cathepsin S = Cathepsin S (UniProt P25774); experiment: Cathepsin enzyme inhibition assay (fluorogenic peptide substrate Z-Val-Val-Arg-AMC), Cathepsin S; format: biochemical, human and mouse; details: enzyme 1 nM, substrate 20 μM, pH 6.5; read-out: CatS IC50
In short: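 Compounds were combined with 1 nM human or mouse enzyme, and substrate then started the reaction. The buffer was potassium phosphate (100 mM, pH 6.5) containing EDTA-Na 5 mM, Triton X-100 0.001% and […] 5 mM.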

Cat L = Cat L (UniProt P07711); experiment: Cathepsin enzyme inhibition assay (fluorogenic peptide substrate Z-Val-Val-Arg-AMC), Cathepsin L; format: biochemical, human and mouse; details: for pIC50: enzyme 1 nM, substrate 20 μM, pH 6.5, read-out: CatL IC50; for CatL, % @25 uM: @25 uM compound
In short: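 Fluorogenic cleavage of Z-Val-Val-Arg-AMC (20 μM) by 1 nM Cat L was monitored at ex 360/em 465 nm for 20 min, the linear phase. The buffer was 100 mM potassium phosphate pH 6.5 with 5 mM EDTA and DTT. IC50 values were derived by standard methods, in μM.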

SMILES: Cc1cc(N2C[C@H](S(=O)(=O)c3ccc(N4CC(F)(F)C4)cc3Cl)C[C@H]2C(=O)NC2(C#N)CC2)n(C2CCC2)n1 [Example 456, (2S,4R)-4-(2-chloro-4-(3,3-difluoroazetidin-1-yl)phenylsulfonyl)-N-(1-cyanocyclopropyl)-1-(1-cyclobutyl-3-methyl-1H-pyrazol-5-yl)pyrrolidine-2-carboxamide]
- pIC50 (Cathepsin S): 9.14
- pIC50 (Cat L): 5.40

SMILES: N#CC1(NC(=O)[C@@H]2C[C@@H](S(=O)(=O)c3ccccc3)CN2C(=O)C2(c3ccc(Cl)cc3)CC2)CC1 [Example 457, (2S,4R)-1-(1-(4-chlorophenyl)cyclopropanecarbonyl)-N-(1-cyanocyclopropyl)-4-(phenylsulfonyl)pyrrolidine-2-carboxamide]
- pIC50 (Cathepsin S): 4.47
- pIC50 (Cat L): 6.28

SMILES: N#CC1(NC(=O)[C@@H]2C[C@@H](S(=O)(=O)c3ccccc3Cl)CN2C(=O)C2(c3ccc(I)cc3)CC2)CC1 [Example 459, (2S,4R)-4-(2-Chloro-benzenesulfonyl)-1-[1-(4-iodo-phenyl)-cyclopropanecarbonyl]-pyrrolidine-2-carboxylic acid (1-cyano-cyclopropyl)-amide]
- pIC50 (Cathepsin S): 9.30
- pIC50 (Cat L): 8.19

SMILES: COc1cc(C2(C(=O)N3C[C@H](S(=O)(=O)c4ccccc4Cl)C[C@H]3C(=O)NC3(C#N)CC3)CC2)c(Cl)cc1Cl [Example 460, (2S,4R)-4-(2-Chloro-benzenesulfonyl)-1-[1-(2,4-dichloro-5-methoxy-phenyl)-cyclopropanecarbonyl]-pyrrolidine-2-carboxylic acid (1-cyano-cyclopropyl)-amide]
- pIC50 (Cathepsin S): 8.23
- pIC50 (Cat L): 7.28

SMILES: N#CC1(NC(=O)[C@@H]2C[C@@H](S(=O)(=O)c3ccccc3Cl)CN2C(=O)C2(c3cc(F)c(Cl)cc3Cl)CC2)CC1 [Example 461, (2S,4R)-4-(2-Chloro-benzenesulfonyl)-1-[1-(2,4-dichloro-5-fluoro-phenyl)-cyclopropanecarbonyl]-pyrrolidine-2-carboxylic acid (1-cyano-cyclopropyl)-amide]
- pIC50 (Cathepsin S): 9.01
- pIC50 (Cat L): 7.65

SMILES: Cc1cc(N2C[C@H](S(C)(=O)=O)C[C@H]2C(=O)NC2(C#N)CC2)n(-c2ccc(C(F)(F)F)cc2)n1 [Example 462, (2S,4R)-4-Methanesulfonyl-1-[5-methyl-2-(4-trifluoromethyl-phenyl)-2H-pyrazol-3-yl]-pyrrolidine-2-carboxylic acid (1-cyano-cyclopropyl)-amide]
- pIC50 (Cathepsin S): 5.02
- pIC50 (Cat L): < 4.60

SMILES: Cc1cc(N2C[C@H](S(C)(=O)=O)C[C@H]2C(=O)NC2(C#N)CC2)n(-c2ccnc(Cl)c2)n1 [Example 463, (2S,4R)-1-[2-(2-Chloro-pyridin-4-yl)-5-methyl-2H-pyrazol-3-yl]-4-methanesulfonyl-pyrrolidine-2-carboxylic acid (1-cyano-cyclopropyl)-amide]
- pIC50 (Cathepsin S): 5.29
- pIC50 (Cat L): < 4.60

SMILES: Cc1cc(N2C[C@H](S(=O)(=O)c3ccc(N4CC(F)(F)C4)cc3Cl)C[C@H]2C(=O)NC2(C#N)CC2)n(C2CCOCC2)n1 [Example 464, (2S,4R)-4-(2-chloro-4-(3,3-difluoroazetidin-1-yl)phenylsulfonyl)-N-(1-cyanocyclopropyl)-1-(3-methyl-1-(tetrahydro-2H-pyran-4-yl)-1H-pyrazol-5-yl)pyrrolidine-2-carboxamide]
- pIC50 (Cathepsin S): 8.94
- pIC50 (Cat L): 5.52

SMILES: Cc1cc(N2C[C@H](S(=O)(=O)c3ccccc3Cl)C[C@H]2C(=O)NC2(C#N)CC2)n(C2CCSCC2)n1 [Example 465, (2S,4R)-4-(2-chlorophenylsulfonyl)-N-(1-cyanocyclopropyl)-1-(3-methyl-1-(tetrahydro-2H-thiopyran-4-yl)-1H-pyrazol-5-yl)pyrrolidine-2-carboxamide]
- pIC50 (Cathepsin S): 8.52
- pIC50 (Cat L): 5.56

SMILES: Cc1cc(N2C[C@H](S(C)(=O)=O)C[C@H]2C(=O)NC2(C#N)CC2)n(CC(F)(F)F)n1 [Example 466, (2S,4R)-4-Methanesulfonyl-1-[5-methyl-2-(2,2,2-trifluoro-ethyl)-2H-pyrazol-3-yl]-pyrrolidine-2-carboxylic acid (1-cyano-cyclopropyl)-amide]
- pIC50 (Cathepsin S): 5.07
- CatL, % @25 uM (Cat L): 95% @25 uM

SMILES: Cc1cc(N2C[C@H](S(=O)(=O)CC3CC3)C[C@H]2C(=O)NC2(C#N)CC2)n(CC(F)(F)F)n1 [Example 467, (2S,4R)-4-Cyclopropylmethanesulfonyl-1-[5-methyl-2-(2,2,2-trifluoro-ethyl)-2H-pyrazol-3-yl]-pyrrolidine-2-carboxylic acid (1-cyano-cyclopropyl)-amide]
- pIC50 (Cathepsin S): 5.68
- CatL, % @25 uM (Cat L): 95% @25 uM

SMILES: Cc1cc(N2C[C@H](S(=O)(=O)CC3CC3)C[C@H]2C(=O)NC2(C#N)CC2)n(-c2ccc(C(F)(F)F)cc2)n1 [Example 469, (2S,4R)-4-Cyclopropylmethanesulfonyl-1-[5-methyl-2-(4-trifluoromethyl-phenyl)-2H-pyrazol-3-yl]-pyrrolidine-2-carboxylic acid (1-cyano-cyclopropyl)-amide]
- pIC50 (Cathepsin S): 6.08
- CatL, % @25 uM (Cat L): 97% @25 uM

SMILES: Cc1cc(N2C[C@H](S(=O)(=O)CC3CC3)C[C@H]2C(=O)NC2(C#N)CC2)n(CCc2ccccc2)n1 [Example 470, (2S,4R)-4-Cyclopropylmethanesulfonyl-1-(5-methyl-2-phenethyl-2H-pyrazol-3-yl)-pyrrolidine-2-carboxylic acid (1-cyano-cyclopropyl)-amide]
- pIC50 (Cathepsin S): 5.55
- CatL, % @25 uM (Cat L): 94% @25 uM

SMILES: N#CC1(NC(=O)[C@@H]2C[C@@H](S(=O)(=O)c3ccccc3Cl)CN2C(=O)C2(Oc3ccc(Cl)cc3)CC2)CC1 [Example 473, (2S,4R)-4-(2-Chloro-benzenesulfonyl)-1-[1-(4-chloro-phenoxy)-cyclopropanecarbonyl]-pyrrolidine-2-carboxylic acid (1-cyano-cyclopropyl)-amide]
- pIC50 (Cathepsin S): 7.15
- pIC50 (Cat L): 5.36

SMILES: Cc1cc(N2C[C@H](S(=O)(=O)c3ccccc3Cl)C[C@H]2C(=O)NC2(C#N)CC2)n(CCCc2ccccc2)n1 [Example 474, (2S,4R)-4-(2-Chloro-benzenesulfonyl)-1-[5-methyl-2-(3-phenyl-propyl)-2H-pyrazol-3-yl]-pyrrolidine-2-carboxylic acid (1-cyano-cyclopropyl)-amide]
- pIC50 (Cathepsin S): 8.62
- pIC50 (Cat L): 5.81

SMILES: Cc1cc(N2C[C@H](S(=O)(=O)c3ccccc3Cl)C[C@H]2C(=O)NC2(C#N)CC2)n(Cc2cncn2C)n1 [Example 476, (2S,4R)-4-(2-Chloro-benzenesulfonyl)-1-[5-methyl-2-(3-methyl-3H-imidazol-4-ylmethyl)-2H-pyrazol-3-yl]-pyrrolidine-2-carboxylic acid (1-cyano-cyclopropyl)-amide]
- pIC50 (Cathepsin S): 8.18
- pIC50 (Cat L): 5.32

SMILES: Cc1cc(N2C[C@H](S(=O)(=O)c3ccccc3Cl)C[C@H]2C(=O)NC2(C#N)CC2)n(C2CCCCC2)n1 [Example 477, (2S,4R)-4-(2-Chloro-benzenesulfonyl)-1-(2-cyclohexyl-5-methyl-2H-pyrazol-3-yl)-pyrrolidine-2-carboxylic acid (1-cyano-cyclopropyl)-amide]
- pIC50 (Cathepsin S): 9.22
- pIC50 (Cat L): 6.50

SMILES: Cc1cc(N2C[C@H](S(=O)(=O)c3ccccc3Cl)C[C@H]2C(=O)NC2(C#N)CC2)n(C2CCOCC2)n1 [Example 478, (2S,4R)-4-(2-Chloro-benzenesulfonyl)-1-[5-methyl-2-(tetrahydro-pyran-4-yl)-2H-pyrazol-3-yl]-pyrrolidine-2-carboxylic acid (1-cyano-cyclopropyl)-amide]
- pIC50 (Cathepsin S): 8.51
- pIC50 (Cat L): 5.44

SMILES: Cc1cc(N2C[C@H](S(=O)(=O)c3ccccc3Cl)C[C@H]2C(=O)NC2(C#N)CC2)n(C2CCS(=O)(=O)CC2)n1 [Example 479, (2S,4R)-4-[(2-Chlorophenyl)sulfonyl]-N-(1-cyanocyclopropyl)-1-[1-(1,1-dioxidotetrahydro-2H-thiopyran-4-yl)-3-methyl-1H-pyrazol-5-yl]-L-prolinamide]
- pIC50 (Cathepsin S): 8.49
- pIC50 (Cat L): 5.51

SMILES: Cc1cc(N2C[C@H](S(=O)(=O)c3ccc(OCC(F)(F)F)cc3Cl)C[C@H]2C(=O)NC2(C#N)CC2)n(C2CCC2)n1 [Example 480, (2S,4R)-4-[2-Chloro-4-(2,2,2-trifluoro-ethoxy)-benzenesulfonyl]-1-(2-cyclobutyl-5-methyl-2H-pyrazol-3-yl)-pyrrolidine-2-carboxylic acid (1-cyano-cyclopropyl)-amide]
- pIC50 (Cathepsin S): 8.98
- pIC50 (Cat L): 5.27

SMILES: Cc1cc(N2C[C@H](S(=O)(=O)c3ccc(N4CCN(C(C)(C)C)CC4)cc3Cl)C[C@H]2C(=O)NC2(C#N)CC2)n(C2CCOCC2)n1 [Example 481, (2S,4R)-4-[4-(4-tert-Butyl-piperazin-1-yl)-2-chloro-benzenesulfonyl]-1-[5-methyl-2-(tetrahydro-pyran-4-yl)-2H-pyrazol-3-yl]-pyrrolidine-2-carboxylic acid (1-cyano-cyclopropyl)-amide]
- pIC50 (Cathepsin S): 9.22
- pIC50 (Cat L): 5.89

SMILES: Cc1cc(N2C[C@H](S(=O)(=O)c3ccc(OCC(F)(F)F)cc3Cl)C[C@H]2C(=O)NC2(C#N)CC2)n(C2CCOCC2)n1 [Example 482, (2S,4R)-4-[2-Chloro-4-(2,2,2-trifluoro-ethoxy)-benzenesulfonyl]-1-[5-methyl-2-(tetrahydro-pyran-4-yl)-2H-pyrazol-3-yl]-pyrrolidine-2-carboxylic acid (1-cyano-cyclopropyl)-amide]
- pIC50 (Cathepsin S): 9.12
- pIC50 (Cat L): 5.57

SMILES: Cc1cc(N2C[C@H](S(=O)(=O)c3ccc(N4CC(F)(F)C4)cc3Cl)C[C@H]2C(=O)NC2(C#N)CC2)n(CCc2ccccc2)n1 [Example 483, (2S,4R)-4-[2-Chloro-4-(3,3-difluoro-azetidin-1-yl)-benzenesulfonyl]-1-(5-methyl-2-phenethyl-2H-pyrazol-3-yl)-pyrrolidine-2-carboxylic acid (1-cyano-cyclopropyl)-amide]
- pIC50 (Cathepsin S): 8.87
- pIC50 (Cat L): 6.28
